pIC50: −log10 of the molar value.
Tested on: benzodiazepine binding site / GABA receptor
Test: not given
Conditions: brain membranes; cited from earlier work

For `CN1CCc2cc3c(cc2[C@H]1[C@@H]1OC(=O)c2c1ccc1c2OCO1)OCO3` [(+) bicuculline], which “Block of enhancement of benzodiazepine binding by GABA agonists” value is on record?
The value was “blocked”.

For `CN1CCc2cc3c(cc2[C@@H]1[C@H]1OC(=O)c2c1ccc1c2OCO1)OCO3` [(-) bicuculline], which “Block of enhancement of benzodiazepine binding by GABA agonists” value is on record?
Its value is “much less active”.

Molecular target: GABAa receptor
Test: Inhibition of 3H-RO15-1788 [3H-Flumazenil] binding to rat cortical tissue (GABAa receptor activity)
Conditions: 0.5 nM 3H-RO15-1788, 30 min at 4° C., pH 7.4
Description: The pharmaceutical utility of compounds of this invention are indicated by the following assay for GABAa receptor activity.
Assays are carried out as described in Thomas and Tallman (J. Bio. Chem. 156: 9838-9842, J. Neurosci. 3:433-440, 1983). Rat cortical tissue is dissected and homogenized in 25 volumes (w/v) of 0.05M Tris HCl buffer (pH 7.4 at 4° C.). The tissue homogenate is centrifuged in the cold (4° C.) at 20,000×g for 20 minutes. The supernatant is decanted and the pellet is rehomogenized in the same volume of buffer and again centrifuged at 20,000×g. The supernatant is decanted and the pellet is frozen at -20° C. overnight. The pellet is then thawed and rehomogenized in 25 volume (original wt/vol) of buffer and the procedure is carried out twice. The pellet is finally resuspended in 50 volumes (w/vol of 0.05M Tris HCl buffer (pH 7.4 at 4° C.).
Incubations contain […] of radioligand 0.5 nM (^3 H-RO15-1788 [^3 H-Flumazenil] specific activity 80 Ci/mmol), drug or blocker and buffer to a total volume of […]. Incubations are carried for 30 min at 4° C. then are rapidly filtered through GFB filters to separate free and bound ligand. Filters are washed twice with fresh 0.05M Tris HCl buffer (pH 7.4 at 4° C.) and counted in a liquid scintillation counter. […] diazepam is added to some tubes to determine nonspecific binding. Data are collected in triplicate determinations, averaged and % inhibition of total specific binding is calculated. Total Specific Binding=Total-Nonspecific. In some cases, the amounts of unlabeled drugs is varied and total displacement curves of binding are carried out. Data are converted to a form for the calculation of IC50 and Hill Coefficient (nH).

With `O=C1c2c(c3ccccc3[nH]c2=O)C(=O)N1c1ccccc1` [Compound 1, 2'-Phenyl-pyrrolo[3,4-c]quinoline-1,3,4(5H)-trione] as the compound, how does the pIC50 read?
The pIC50 was 7.44.

With `COc1ccc(N2C(=O)c3c(c4ccccc4[nH]c3=O)C2=O)cc1` [Compound 2, 2-(4-Methoxyphenyl)-pyrrolo[3,4-c]quinoline-1,3,4(5H)-trione] as the compound, how does the pIC50 read?
Its pIC50 is 6.40.

With `O=C1c2c(c3ccccc3[nH]c2=O)C(=O)N1c1ccccc1F` [Compound 4, 2-(2-Fluorophenyl)-pyrrolo[3,4-c]quinoline-1,3,4(5H)-trione] as the compound, how does the pIC50 read?
The pIC50 was 6.15.

With `O=C1c2c(c3ccccc3[nH]c2=O)CN1c1ccccc1` [Compound 16, 2-Phenyl-pyrrolo[3,4-c]quinoline-3(1H),4(5H)-dione] as the compound, how does the pIC50 read?
The pIC50 was 6.22.
